# Source: patent publication US6017914A, “Benzo[b]thiophene compounds, intermediates, formulations, and methods” (Eli Lilly and Company, priority 1997, dated 2000)
# Columns and labels:
# [1] = test system: Serum Cholesterol; test: Serum cholesterol in ovariectomized rats (Cholesterol Analysis); type: in vivo, female Sprague Dawley rats; conditions: daily for 4 days
# [2] = test system: uterus; test: Post-menopausal ovariectomized rat model: wet uterine weight; type: in vivo, female Sprague Dawley rats; conditions: daily for 4 days
Compound,Serum Cholesterol (% Dec.) versus ovariectomized controls ([1]; 0.1 mg/kg PO),Uterine Wt. (% Inc.) versus the ovariectomized controls ([2]; 0.1 mg/kg PO),Uterine Wt. (% Inc.) versus the ovariectomized controls ([2]; 1 mg/kg PO),Uterine Wt. (% Inc.) versus the ovariectomized controls ([2]; 10 mg/kg PO),Serum Cholesterol (% Dec.) versus ovariectomized controls ([1]; 1 mg/kg PO),Serum Cholesterol (% Dec.) versus ovariectomized controls ([1]; 10 mg/kg PO)
"COC(=O)c1ccc2c(C(=O)c3ccc(OCCN4CCCCC4)cc3)c(-c3ccc(O)cc3)sc2c1.Cl [Example 1, [2-(4-Hydroxyphenyl)-6-methoxycarbonylbenzo[b]thien-3-yl][4-[2-(1-piperidinyl)ethoxy]phenyl]methanone Hydrochloride]",-8.6%,46.9%,19.1%,45.2%,–,–
"CCCCOC(=O)c1ccc2c(C(=O)c3ccc(OCCN4CCCCC4)cc3)c(-c3ccc(O)cc3)sc2c1 [Example 2, [2-(4-Hydroxyphenyl)-6-n-butoxycarbonylbenzo[b]thien-3-yl][4-[2-(1-piperidinyl)ethoxy]phenyl]methanone]",-1.2%,19.4%,16.8%,52.5%,–,–
CC(C)COC(=O)c1ccc2c(C(=O)c3ccc(OCCN4CCCCC4)cc3)c(-c3ccc(O)cc3)sc2c1 [Example 3],-2.4%,11.8%,21.7%,47.1%,8.7%,58.0%
"Cl.O=C(O)c1ccc2c(C(=O)c3ccc(OCCN4CCCCC4)cc3)c(-c3ccc(O)cc3)sc2c1 [Example 4, [2-(4-Hydroxyphenyl)-6-carboxybenzo[b]thien-3-yl][4-[2-(1-piperidinyl)ethoxy]phenyl]methanone Hydrochloride]",0.6%,18.8%,27.2%,29.6%,–,–
"CC(=O)c1ccc2c(C(=O)c3ccc(OCCN4CCCCC4)cc3)c(-c3ccc(O)cc3)sc2c1 [Example 5, [2-(4-Hydroxyphenyl)-6-acetylbenzo[b]thien-3-yl][4-[2-(1-piperidinyl)ethoxy]phenyl]methanone]",-6.3%,18.8%,51.8%,69.4%,–,–
"C#Cc1ccc2c(C(=O)c3ccc(OCCN4CCCCC4)cc3)c(-c3ccc(O)cc3)sc2c1 [Example 6, [2-(4-Hydroxyphenyl)-6-ethynylbenzo[b]thien-3-yl][4-[2-(1-piperidinyl)ethoxy]phenyl]methanone]",–,14.3%,27.8%,22.5%,–,–
